Paper PMC12586182 (Frontiers in Oncology, 2025)

Columns and labels:
Assay in all cases: Cell viability assay (ATPlite)
Type in all cases: cell-based
[1] = tested on: SU-DHL-1; settings: Homo sapiens; SU-DHL-1 cell line, 72 hours incubation
Procedure: (§1) Intracellular ATP content was used as an indirect readout of cell number using the ATPlite 1Step bioluminescence assay (Revvity, Groningen, the Netherlands). Cells were seeded in 384-well plates at an optimized density to ensure unrestricted growth and maximal signal at the end of the experiment. After 24 hours of incubation, the starting cell number was determined by adding ATPlite to each well of a control plate and recording luminescence on an Envision multimode reader (Revvity, Waltham, MA, USA) ([4]). Compounds were diluted in DMSO in √10-fold steps from 10 mmol/L stocks to obtain 9-point dilution series. After further 31.6-fold dilution in 20 mmol/L HEPES (pH 7.4), the dilution series were added in duplicate to the cells in the 384-well plates to determine the effect of the compounds on cell viability. Vehicle-treated controls were included to determine maximal cell proliferation. The final DMSO concentration was 0.4% (v/v) in all wells. After incubation for an additional 72 hours, the ATP content was measured in each well using ATPlite. The luminescent signal in inhibitor-treated wells was normalized to vehicle-treated control wells to determine the percentage viability at each concentration. Cell doublings were determined by relating the cell number of vehicle-treated controls to the starting cell number for each cell line. The viability assay of a cell line was repeated when the cell doubling deviated > 2-fold from the historic doubling as determined by multiple independent experiments. The quality of the complete assay was determined by a parallel test with doxorubicin on two cell lines. IC50 values were calculated by fitting a four-parameter logistic model to the percentage viability values using IDBS XLfit5 (IDBS, Guildford, United Kingdom). All curves were visually inspected and submitted to an F-test as implemented in IDBS XLfit5. Curves with an F-value above 1.5 were invalidated and IC50 values were maximized at the highest concentration.

[2] = tested on: DB; settings: Homo sapiens; DB cell line, 72 hours incubation
Procedure: as §1

[3] = tested on: SNU-C2B; settings: Homo sapiens; SNU-C2B cell line, 72 hours incubation
Procedure: as §1

[4] = tested on: DLD-1; settings: Homo sapiens; DLD-1 cell line, 72 hours incubation
Procedure: as §1

[5] = tested on: A-673; settings: Homo sapiens, A673; A-673 cell line, 72 hours incubation
Procedure: as §1

[6] = tested on: SW982; settings: Homo sapiens; SW982 cell line, 72 hours incubation
Procedure: as §1

[7] = tested on: SW780; settings: Homo sapiens; SW780 cell line, 72 hours incubation
Procedure: as §1

[8] = tested on: A-204; settings: Homo sapiens, A204; A-204 cell line, 72 hours incubation
Procedure: as §1

[9] = tested on: DU145; settings: Homo sapiens, DU-145; DU145 cell line, 72 hours incubation
Procedure: as §1

[10] = tested on: BT-474; settings: Homo sapiens; BT-474 cell line, 72 hours incubation
Procedure: as §1

[11] = tested on: SK-N-MC; settings: Homo sapiens; SK-N-MC cell line, 72 hours incubation
Procedure: as §1

[12] = tested on: VA-ES-BJ; settings: Homo sapiens; VA-ES-BJ cell line, 72 hours incubation
Procedure: as §1

[13] = tested on: OVCAR-3; settings: Homo sapiens; OVCAR-3 cell line, 72 hours incubation
Procedure: as §1

[14] = tested on: MDA-MB-453; settings: Homo sapiens; MDA-MB-453 cell line, 72 hours incubation
Procedure: as §1

[15] = tested on: NCI-H2452; settings: Homo sapiens; NCI-H2452 cell line, 72 hours incubation
Procedure: as §1

[16] = tested on: NOMO-1; settings: Homo sapiens; NOMO-1 cell line, 72 hours incubation
Procedure: as §1

[17] = tested on: TOV-112D; settings: Homo sapiens, TOV112D; TOV-112D cell line, 72 hours incubation
Procedure: as §1

[18] = tested on: NCI-H2052; settings: Homo sapiens; NCI-H2052 cell line, 72 hours incubation
Procedure: as §1

[19] = tested on: A-375; settings: Homo sapiens; A-375 cell line, 72 hours incubation
Procedure: as §1

[20] = tested on: NCI-H661; settings: Homo sapiens; NCI-H661 cell line, 72 hours incubation
Procedure: as §1

[21] = tested on: HT; settings: Homo sapiens; HT cell line, 72 hours incubation
Procedure: as §1

[22] = tested on: MDA-MB-231; settings: Homo sapiens; MDA-MB-231 cell line, 72 hours incubation
Procedure: as §1

[23] = tested on: MOLM-13; settings: Homo sapiens; MOLM-13 cell line, 72 hours incubation
Procedure: as §1

[24] = tested on: HCC4006; settings: Homo sapiens; HCC4006 cell line, 72 hours incubation
Procedure: as §1

[25] = tested on: U-87MG ATCC; settings: Homo sapiens; U-87MG ATCC cell line, 72 hours incubation
Procedure: as §1

[26] = tested on: AsPC-1; settings: Homo sapiens, ASPC1; AsPC-1 cell line, 72 hours incubation
Procedure: as §1

[27] = tested on: A-704; settings: Homo sapiens, A704; A-704 cell line, 72 hours incubation
Procedure: as §1

[28] = tested on: DoTc2 4510; settings: Homo sapiens; DoTc2 4510 cell line, 72 hours incubation
Procedure: as §1

[29] = tested on: Rh30; settings: Homo sapiens; Rh30 cell line, 72 hours incubation
Procedure: as §1

[30] = tested on: SW837; settings: Homo sapiens; SW837 cell line, 72 hours incubation
Procedure: as §1

[31] = tested on: LS174T; settings: Homo sapiens; LS174T cell line, 72 hours incubation
Procedure: as §1

O=C(c1ccc(Oc2ccccc2)cc1Cl)c1c[nH]c2ncnc(N[C@@H]3CC[C@@H](CO)OC3)c12 [nemtabrutinib]
IC50 [1]: 6.22 µM
IC50 [2]: 17.3 µM
IC50 [3]: 2.92 µM
IC50 [4]: 4.6 µM
IC50 [5]: 3.6 µM
IC50 [6]: 10.7 µM
IC50 [7]: 2.79 µM
IC50 [8]: 6.75 µM
IC50 [9]: 1.64 µM
IC50 [10]: 3.11 µM
IC50 [11]: 7.4 µM
IC50 [12]: 7.98 µM
IC50 [13]: 0.578 µM
IC50 [14]: 5.32 µM
IC50 [15]: 5.46 µM
IC50 [16]: 4.78 µM
IC50 [17]: 2.76 µM
IC50 [18]: 5.24 µM
IC50 [19]: 0.404 µM
IC50 [20]: 2.38 µM
IC50 [21]: > 31.6 µM
IC50 [22]: 2.59 µM
IC50 [23]: 1 µM
IC50 [24]: 6.17 µM
IC50 [25]: 12 µM
IC50 [26]: 3.83 µM
IC50 [27]: 16.3 µM
IC50 [28]: 1.41 µM
IC50 [29]: 5.52 µM
IC50 [30]: 3.81 µM
IC50 [31]: 1.74 µM
